Like-named read-outs stand apart in the source and are kept apart here. Starred links: 1 amine or outer side, 2 acyl side, 3 side chain; linkers in the order of their positions; H or OH if unused. Non-standard residues stand in square brackets, D forms with d. Residues, ends and D or L forms follow the SMILES beside them. ξ: configuration not given here. *: point of attachment. dNMe2Nal = CN[C@H](Cc1ccc2ccccc2c1)C(=O)O; 1Nal = N[C@@H](Cc1cccc2ccccc12)C(=O)O; 2Nal = N[C@@H](Cc1ccc2ccccc2c1)C(=O)O; d2Nal = N[C@H](Cc1ccc2ccccc2c1)C(=O)O; Ethylenediamine = C(CN[*:2])N[*:1]; d(hPhe) = N[C@H](CCc1ccccc1)C(=O)O; β3hAib = CC(C)(CC(=O)[*:2])N[*:1]; ξ2Nal = NC(Cc1ccc2ccccc2c1)C(=O)O; NMeF = CN[C@@H](Cc1ccccc1)C(=O)O; Isonicotinoyl = O=C(c1ccncc1)*; Ac6c = NC1(C(=O)O)CCCCC1; Morpholide = C1CN(*)CCO1; Orn = NCCC[C@H](N)C(=O)O; Inp = O=C(O)C1CCNCC1; ξK = NCCCCC(N)C(=O)O; Ava = NCCCCC(=O)O; GABA = NCCCC(=O)O; βAla = NCCC(=O)O
Legend:
[1] = tested on: growth hormone secretion; assay: GHRP induced growth hormone secretion, intravenous administration (Rat IV); format: in vivo; details: serum GH 10 min after injection; for RAT IV ED50: iv injection
Procedure, shortened: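 Female Sprague Dawley rats (24-30 days, 50-90 g) under intraperitoneal pentobarbitone received graded intravenous tail-vein peptide doses in pH 5.0 sodium acetate/mannitol buffer 20 min post-anaesthesia. Blood by cardiac puncture 10 min after dosing; serum GH measured by rat GH ELISA in duplicate.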

[2] = target: rat pituitary cells (Rattus norvegicus, UniProt O08725); details: GH release, 15 min incubation
Procedure, shortened: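 Primary rat anterior pituitary cells, cultured three days in DME low glucose/10% FBS, were washed, pre-incubated twice for 15 min, then challenged 15 min with test compounds (DMSO ≤0.1%) at 37 °C. Released GH was measured by two-site ELISA; EC50 came from 4-parameter fits, mean of three to four independent determinations.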

[3] = read-out: PIT Cell EC50, Table III, formula IV compounds
[4] = read-out: PIT Cell EC50, Table V, formula II compounds
[5] = read-out: PIT Cell EC50, Table IV, formula III compounds

Chain of rat pituitary cells (O08725 whole entry): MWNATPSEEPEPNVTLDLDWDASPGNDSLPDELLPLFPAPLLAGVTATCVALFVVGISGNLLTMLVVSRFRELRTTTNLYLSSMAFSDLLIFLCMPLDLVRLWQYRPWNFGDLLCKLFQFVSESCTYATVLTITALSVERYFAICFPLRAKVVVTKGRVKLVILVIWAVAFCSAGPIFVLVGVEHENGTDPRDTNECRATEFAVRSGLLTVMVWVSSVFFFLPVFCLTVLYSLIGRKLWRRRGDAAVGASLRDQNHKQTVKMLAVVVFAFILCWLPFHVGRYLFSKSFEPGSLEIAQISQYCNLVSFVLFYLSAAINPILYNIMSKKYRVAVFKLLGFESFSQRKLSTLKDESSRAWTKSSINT

Compound: NCCCC[C@H](NC(=O)[C@H](Cc1ccccc1)NC(=O)[C@@H](Cc1c[nH]c2ccccc12)NC(=O)[C@@H](Cc1ccc2ccccc2c1)NC(=O)[C@@H](N)Cc1c[nH]cn1)C(N)=O [H b w F K amide] (H-H[d2Nal][dW]FK-NH2)
- RAT IV ED50 ([1]; Table III): 4.2 µg
- EC50 [2, 3]: 6.8 nM

Compound: O=C(N[C@H](Cc1ccc2ccccc2c1)C(=O)NCc1ccc2ccccc2c1)C1CCNCC1 [(inip) b man, (inip)-DβNal-(2-aminomethylnaphthyl) amide]
- RAT IV ED50 ([1]; Table V): 500 µg
- EC50 [2, 4]: 9 nM

Compound: NCCC[C@H](NC(=O)[C@@H](Cc1ccc2ccccc2c1)NC(=O)[C@@H](Cc1ccc2ccccc2c1)NC(=O)C1CCNCC1)C(N)=O [(inip) b b O amide] (H-[Inp][d2Nal][d2Nal][Orn]-NH2)
- RAT IV ED50 ([1]; Table IV): 1 µg
- EC50 [2, 5]: 5.9 nM

Compound: O=C(N[C@H](Cc1ccc2ccccc2c1)C(=O)N[C@H](Cc1ccc2ccccc2c1)C(=O)NC1CCNCC1)C1CCNCC1 [(inip) b b api]
- RAT IV ED50 ([1]; Table IV): 25 µg
- EC50 [2, 5]: 2.7 nM

Compound: NCCCC[C@H](NC(=O)[C@H](Cc1ccccc1)NC(=O)[C@@H](Cc1ccc2ccccc2c1)NC(=O)[C@@H](Cc1ccc2ccccc2c1)NC(=O)C1CCNCC1)C(=O)N[C@@H](Cc1ccc(O)cc1)C(N)=O [(inip) b b F K Y amide] (H-[Inp][d2Nal][d2Nal]FKY-NH2)
- RAT IV ED50 ([1]; Table III): 1 µg
- EC50 [2, 3]: 0.43 nM

Compound: C[C@H](NC(=O)[C@@H](Cc1ccc2ccccc2c1)NC(=O)CCCCN)C(=O)N[C@@H](Cc1c[nH]c2ccccc12)C(=O)N[C@H](Cc1ccccc1)C(=O)N[C@@H](CCCCN)C(N)=O [(Ava) b A W f K amide, reference compound] (H-[Ava][d2Nal]AW[dF]K-NH2)
- Rat IV ED50 ([1]; Table II, iv tail vein injection, anesthetized weanling female rats): 1.5 µg
- EC50 ([2]; read-out: “Pit” Cell EC50, Table II, prior art compounds): 0.2 nM

Compound: NC(=O)[C@H](Cc1ccccc1)NC(=O)[C@@H](CCc1ccccc1)NC(=O)[C@@H](Cc1ccc2ccccc2c1)NC(=O)C1CCNCC1 [(inip) b hf F amide] (H-[Inp][d2Nal][d(hPhe)]F-NH2)
- RAT IV ED50 ([1]; Table IV): 10 µg
- EC50 [2, 5]: 14 nM

Compound: O=C(N[C@H](Cc1ccc2ccccc2c1)C(=O)N[C@H](Cc1ccc2ccccc2c1)C(=O)N[C@@H](Cc1ccc(O)cc1)C(=O)O)C1CCNCC1 [(inip) b b Y acid] (H-[Inp][d2Nal][d2Nal]Y-OH)
- RAT IV ED50 ([1]; Table IV): 10 µg
- EC50 [2, 5]: 5 nM

Compound: NCCCCC(=O)N[C@H](Cc1ccc2ccccc2c1)C(=O)N[C@H](Cc1ccc2ccccc2c1)C(=O)N[C@@H](Cc1ccccc1)C(=O)NCC(N)=O [(Ava) b b F G amide] (H-[Ava][d2Nal][d2Nal]FG-NH2)
- RAT IV ED50 ([1]; Table III): 50 µg
- EC50 [2, 3]: 7.2 nM

Compound: NCCCCC(=O)N[C@H](Cc1ccc2ccccc2c1)C(=O)N[C@H](Cc1ccc2ccccc2c1)C(=O)N[C@@H](Cc1ccc2ccccc2c1)C(=O)N[C@@H](CCCCN)C(N)=O [(Ava) b b B K amide] (H-[Ava][d2Nal][d2Nal][2Nal]K-NH2)
- RAT IV ED50 ([1]; Table III): 50 µg
- EC50 [2, 3]: 0.7 nM

Compound: NCCCC[C@H](NC(=O)[C@H](Cc1ccccc1)NC(=O)[C@@H](Cc1ccc2ccccc2c1)NC(=O)[C@@H](Cc1ccc2ccccc2c1)NC(=O)c1ccncc1)C(N)=O [(pyc) b b F K amide] (Isonicotinoyl-[d2Nal][d2Nal]FK-NH2)
- RAT IV ED50 ([1]; Table III): 200 µg
- EC50 [2, 3]: > 300 nM

Compound: CN(C(=O)C1CCNCC1)[C@H](Cc1ccc2ccccc2c1)C(=O)N[C@H](Cc1ccc2ccccc2c1)C(=O)N[C@@H](Cc1ccccc1)C(=O)N1CCOCC1 [(inip) nmb b F mor] (H-[Inp][dNMe2Nal][d2Nal]F-Morpholide)
- RAT IV ED50 ([1]; Table III): 10 µg
- EC50 [2, 3]: 0.8 nM

Compound: NCCCCC(=O)N[C@H](Cc1ccccc1)C(=O)N[C@H](Cc1c[nH]c2ccccc12)C(=O)N[C@@H](Cc1ccccc1)C(N)=O [(Ava) f w F amide] (H-[Ava][dF][dW]F-NH2)
- RAT IV ED50 ([1]; Table IV): 1000 µg
- EC50 [2, 5]: > 300 nM

Compound: NCCNC(=O)[C@@H](Cc1ccc2ccccc2c1)NC(=O)[C@@H](Cc1ccc2ccccc2c1)NC(=O)C1CCNCC1 [(inip) b b tam] (H-[Inp]-[d2Nal]-[d2Nal]-Ethylenediamine)
- RAT IV ED50 ([1]; Table IV): 20 µg
- EC50 [2, 5]: 11 nM

Compound: NC(=O)C1(NC(=O)[C@@H](Cc2ccc3ccccc3c2)NC(=O)[C@@H](Cc2ccc3ccccc3c2)NC(=O)C2CCNCC2)CCCCC1 [(inip) b b Abx amide] (H-[Inp][d2Nal][d2Nal][Ac6c]-NH2)
- RAT IV ED50 ([1]; Table IV): 100 µg
- EC50 [2, 5]: 13 nM

Compound: NCCCCC(=O)N[C@H](Cc1ccc2ccccc2c1)C(=O)N[C@H](Cc1c[nH]c2ccccc12)C(=O)N[C@@H](Cc1ccccc1)C(=O)N[C@@H](CCCCN)C(N)=O [(Ava) b w F K amide] (H-[Ava][d2Nal][dW]FK-NH2)
- RAT IV ED50 ([1]; Table III): 11.8 µg
- EC50 [2, 3]: 4.6 nM

Compound: CN(C(=O)[C@@H](Cc1ccc2ccccc2c1)NC(=O)[C@@H](Cc1ccc2ccccc2c1)NC(=O)C1CCNCC1)[C@@H](Cc1ccccc1)C(N)=O [(inip) bb nmF amide] (H-[Inp][d2Nal][d2Nal][NMeF]-NH2)
- RAT IV ED50 ([1]; Table IV): 5 µg
- EC50 [2, 5]: 0.6 nM

Compound: CN(C(=O)CCCN)[C@H](Cc1ccc2ccccc2c1)C(=O)N[C@H](Cc1ccc2ccccc2c1)C(=O)N[C@@H](Cc1ccccc1)C(N)=O [(Ab) nmb b F amide] (H-[GABA][dNMe2Nal][d2Nal]F-NH2)
- RAT IV ED50 ([1]; Table IV): 20 µg
- EC50 [2, 5]: 0.2 nM

Compound: O=C(N[C@H](Cc1ccc2ccccc2c1)C(=O)NCCc1c[nH]c2ccccc12)C1CCNCC1 [(inip) b tra, (inip)-DβNal-[N-tryptaminyl] amide]
- RAT IV ED50 ([1]; Table V): 100 µg
- EC50 [2, 4]: 100 nM

Compound: NCCCCC(=O)N[C@H](Cc1ccc2ccccc2c1)C(=O)N[C@H](Cc1ccc2ccccc2c1)C(=O)N[C@@H](Cc1ccccc1)C(=O)N[C@H](CCCCN)C(N)=O [(Ava) b b F k amide] (H-[Ava][d2Nal][d2Nal]F[dK]-NH2)
- RAT IV ED50 ([1]; Table III): 33.3 µg
- EC50 [2, 3]: 17 nM

Compound: NC(=O)[C@H](Cc1ccc2ccccc2c1)NC(=O)[C@@H](Cc1ccc2ccccc2c1)NC(=O)[C@@H](Cc1ccc2ccccc2c1)NC(=O)C1CCNCC1 [(inip) b b B amide] (H-[Inp][d2Nal][d2Nal][2Nal]-NH2)
- RAT IV ED50 ([1]; Table IV): 50 µg
- EC50 [2, 5]: 0.1 nM

Compound: NC(=O)CCNC(=O)[C@H](Cc1ccccc1)NC(=O)[C@@H](Cc1ccc2ccccc2c1)NC(=O)[C@@H](Cc1ccc2ccccc2c1)NC(=O)C1CCNCC1 [(inip) b b F bA amide] (H-[Inp][d2Nal][d2Nal]F[βAla]-NH2)
- RAT IV ED50 ([1]; Table III): 2 µg
- EC50 [2, 3]: 0.2 nM

Compound: NCCCC[C@H](NC(=O)[C@H](Cc1ccccc1)NC(=O)[C@@H](Cc1c[nH]c2ccccc12)NC(=O)[C@@H](Cc1c[nH]c2ccccc12)NC(=O)[C@@H](N)Cc1c[nH]cn1)C(N)=O [H w w F K amide] (H-H[dW][dW]FK-NH2)
- RAT IV ED50 ([1]; Table III): 50 µg
- EC50 [2, 3]: 25.8 nM

Compound: CC(C)(N)CC(=O)N[C@H](Cc1ccc2ccccc2c1)C(=O)N[C@H](Cc1ccc2ccccc2c1)C(=O)N[C@@H](Cc1ccccc1)C(=O)N[C@@H](CCCCN)C(N)=O [(nba) b b F K amide] (β3hAib-[d2Nal][d2Nal]FK-NH2)
- RAT IV ED50 ([1]; Table III): 100 µg
- EC50 [2, 3]: 2.8 nM

Compound: NC(=O)CCNC(=O)[C@@H](Cc1ccc2ccccc2c1)NC(=O)[C@@H](Cc1ccc2ccccc2c1)NC(=O)C1CCNCC1 [(inip) b b bA amide] (H-[Inp][d2Nal][d2Nal][βAla]-NH2)
- RAT IV ED50 ([1]; Table IV): 10 µg
- EC50 [2, 5]: 10 nM

Compound: NC(=O)[C@@H](Cc1ccccc1)NC(=O)[C@@H](Cc1ccc2ccccc2c1)NC(=O)[C@@H](Cc1ccc2ccccc2c1)NC(=O)C1CCNCC1 [(inip) b b f amide] (H-[Inp][d2Nal][d2Nal][dF]-NH2)
- RAT IV ED50 ([1]; Table IV): 20 µg
- EC50 [2, 5]: 0.6 nM

Compound: NC(=O)CCN(CCc1ccccc1)C(=O)[C@@H](Cc1ccc2ccccc2c1)NC(=O)[C@@H](Cc1ccc2ccccc2c1)NC(=O)C1CCNCC1 [(inip) b b feb amide]
- RAT IV ED50 ([1]; Table IV): 0.67 µg
- EC50 [2, 5]: 0.3 nM

Compound: CN(C(=O)[C@@H](Cc1ccc2ccccc2c1)NC(=O)C1CCNCC1)[C@H](Cc1ccc2ccccc2c1)C(=O)N[C@@H](Cc1ccccc1)C(N)=O [(inip) b nmb F amide] (H-[Inp][d2Nal][dNMe2Nal]F-NH2)
- RAT IV ED50 ([1]; Table IV): 5 µg
- EC50 [2, 5]: 1 nM

Compound: NCCCCC(=O)N[C@H](Cc1ccc2ccccc2c1)C(=O)N[C@H](Cc1ccc2ccccc2c1)C(=O)N[C@@H](Cc1ccccc1)C(=O)N[C@@H](CCCCN)C(N)=O [(Ava) b b F K amide] (H-[Ava][d2Nal][d2Nal]FK-NH2)
- RAT IV ED50 ([1]; Table III): 2.6 µg
- EC50 [2, 3]: 2.8 nM

Compound: NC(=O)[C@@H]1CCCN1C(=O)[C@@H](Cc1ccc2ccccc2c1)NC(=O)[C@@H](Cc1ccc2ccccc2c1)NC(=O)C1CCNCC1 [(inip) b b P amide] (H-[Inp][d2Nal][d2Nal]P-NH2)
- RAT IV ED50 ([1]; Table IV): 5 µg
- EC50 [2, 5]: 9 nM

Compound: NCCCCNC(=O)[C@@H](Cc1ccc2ccccc2c1)NC(=O)[C@@H](Cc1ccc2ccccc2c1)NC(=O)C1CCNCC1 [(inip) b b bam, (inip)-DβNal-DβNal-[N-(4-aminobutyl)] amide]
- RAT IV ED50 ([1]; Table IV): 3.3 µg
- EC50 [2, 5]: 18.5 nM

Compound: NCCCCC(NC(=O)[C@H](Cc1cccc2ccccc12)NC(=O)[C@@H](Cc1ccc2ccccc2c1)NC(=O)C(Cc1ccc2ccccc2c1)NC(=O)C1CCNCC1)C(N)=O (stereo partly drawn) [(inip) b b npA K amide, (inip)-DβNal-DβNal-αNal-Lys-amide] (H-[Inp][ξ2Nal][d2Nal][1Nal][ξK]-NH2)
- RAT IV ED50 ([1]; Table III): 1 µg
- EC50 [2, 3]: 0.1 nM

From patent US7094869B2, “Low molecular weight peptidomimetic growth hormone secretagogues” (Genentech, Inc., priority 1994, dated 2006)
